The nature of the data set: solvent given as SMILES.

Molecules are shown by their SMILES.

Regarding `O=c1cccc2n1CN1C=C(Br)C=CC1=N2`, the absorption maximum (in CO) was 436 nm.

Take `CC(=O)c1ccc(/N=N/c2ccc(Nc3ccccc3)cc2)cc1`: the absorption maximum is listed as 438 nm (in C1CCOC1); 432 nm (in CC#N); 544 nm (in CC(=O)O); 452 nm (in CN(C)C=O); 443 nm (in CO); 459 nm (in CS(C)=O). The absorption maximum is, setting by setting: (in Cc1ccccc1) 429 nm; (in ClC(Cl)Cl) 427 nm; (in ClCCl) 432 nm.

With `Cc1ccc(-c2ccc(/C=C/c3ccc(Cl)cc3)cn2)nc1`, under “in CC#N”, the absorption maximum turned out to be 337 nm.

On to `CCC1(CC)c2cc(/C=C/c3ccc(N(c4ccccc4)c4ccccc4)cc3)ccc2-c2ccc(/C=C/c3ccc(N(c4ccccc4)c4ccccc4)cc3)cc21`, for which the absorption maximum (in Cc1ccccc1) stood at 412 nm.

In turn, `CCOC(=O)c1c(C(=O)OC)c(-c2cc3cc(OC)ccc3oc2=O)nn1-c1ccccc1` returned an absorption maximum (in ClCCl) of 351 nm.

On to `CCC1(CC)c2cc(Br)ccc2-c2c1c1c(c3c2C(CC)(CC)c2cc(-c4cccs4)ccc2-3)C(CC)(CC)c2cc(Br)ccc2-1`, for which, under “in C1CCOC1”, the absorption maximum was determined as 336 nm.

Turning to `CSc1ccc(/C=C/c2ccncn2)cc1`, the absorption maximum (in ClCCl) amounted to 346 nm.

In the case of `CC1=CC(C)=[N+]2C1=C(c1ccc(-c3c4ccccc4c(-c4ccccc4)c4ccccc34)cc1)c1c(C)cc(C)n1[B-]2(F)F`, the absorption maximum runs as follows: (in CC#N) 499 nm; (in CCCCCC) 502 nm; (in CCO) 500 nm; (in CN(C)C=O) 500 nm; (in Cc1ccccc1) 504 nm; (in ClCCl) 502 nm.

In the case of `CN(C)c1cccc2c1C(=O)c1ccccc1C2=O`, the absorption maximum runs as follows: (in C1CCCCC1) 487 nm; (in CC1CCCCC1) 487.5 nm; (in CC#N) 502 nm; (in CCC(C)CC) 487 nm; (in CCCCCC) 487.5 nm; (in CCOC(C)=O) 498 nm.

Take `CC(C)(C)c1ccc2c(c1)c1cc(C(C)(C)C)ccc1n2-c1ccc(C#Cc2ccc(C=O)cc2)cc1`: the absorption maximum (in ClCCl) is given as 354 nm.

In the case of `CCn1c2ccccc2c2cc(-c3cc(-c4ccc5c(c4)c4ccccc4n5CC)nc(SC)n3)ccc21`, the absorption maximum by setting is: (in C1CCOC1) 371 nm; (in CCOC(C)=O) 369 nm; (in CN(C)C=O) 374 nm; (in Cc1ccccc1) 370 nm; (in ClCCl) 370 nm.

Regarding `C(=C\c1cccc2ccccc12)/c1ncc(-c2ccccc2)o1`, the absorption maximum (in ClCCl) is 357 nm.

For `FC(F)(F)c1ccc(/C=C/c2ccc(-c3nnc(-c4ccc(-c5cc6ccccc6s5)cc4)o3)cc2)cc1`, the absorption maximum came out at 333 nm (in CC#N); 342 nm (in CC(C)=O); 337 nm (in CCCCCCCC); 340 nm (in CCCCCCCCCCO); 342 nm (in CCCCCCCCO); 341 nm (in CCCCCO). In addition, the absorption maximum is recorded as 340 nm (in CCCO), 345 nm (in CN(C)C=O), 337 nm (in CO) and 342 nm (in CS(C)=O).

In turn, `C=C` had an absorption maximum (in CCCCCCC) of 162 nm.

On to `CN(CCO)c1ccc(/C=C/C2=C(C#N)C(C(C#N)C#N)OC2(C)C)cc1` (centres undefined), for which the absorption maximum is, setting by setting: (in CC#N) 586 nm; (in CC(C)=O) 574 nm; (in CCO) 579 nm; (in CCOC(C)=O) 565 nm; (in CN(C)C=O) 588 nm; (in CO) 575 nm. Further, the absorption maximum came out at 595 nm (in CS(C)=O), 562 nm (in Cc1ccccc1), 575 nm (in ClCCl) and 587 nm (in O).

`CC(C)(C)C1Nc2c(Cl)cc(Cl)cc2C(=O)N1Cc1ccccc1` (centres undefined) displayed an absorption maximum (in CC#N) of 360 nm; an absorption maximum (in CCCCCCCCCCCCCCCC) of 350 nm; an absorption maximum (in CO) of 367 nm; an absorption maximum (in ClC(Cl)Cl) of 357 nm; an absorption maximum (in c1ccccc1) of 355 nm.

`Cc1cc(C)c(C2=C3C=c4c(c5ccc(C(C)(C)C)cc5c5cc(C(C)(C)C)ccc45)=[N+]3[B-](F)(F)n3c2cc2c4ccc(C(C)(C)C)cc4c4cc(C(C)(C)C)ccc4c23)c(C)c1` displayed an absorption maximum (in C1CCCCC1) of 693 nm; an absorption maximum (in C1CCOC1) of 692 nm; an absorption maximum (in CC#N) of 686 nm; an absorption maximum (in Cc1ccccc1) of 698 nm; an absorption maximum (in ClCCl) of 693 nm.

`Cn1c(-c2ccc(-c3nc(-c4ccccc4)c(-c4ccccc4)n3C)s2)nc(-c2ccccc2)c1-c1ccccc1` had an absorption maximum (in CC#N) of 391 nm.

Consider `CCOC(=O)CCCn1c(C(=O)OC)c(C)c2c(=O)n3c(cc21)C(CC)=C(C)C3=O`, for which the absorption maximum turned out to be 396 nm (in C1CCCCC1); 397 nm (in CO); 397 nm (in CS(C)=O); 398 nm (in ClC(Cl)Cl); 397 nm (in c1ccccc1).

Take `C[Si](C)(C)C#Cc1ccc(C#C[Si](C)(C)C)c2ccccc12`: for the setting “in C1CCCCC1”, the absorption maximum is 347 nm.

`C#Cc1ccc2cc(/C=C/C(=O)OCC)c(=O)oc2c1`: the absorption maximum (in CCO) was found to be 360 nm.

Consider `CCOC(=O)C1=C(N)n2c(=O)c3ccccc3c(=O)n2C1c1ccc(C)cc1` (centres undefined), for which, for the setting “in CS(C)=O”, the absorption maximum is listed as 365 nm.

Where the note is “in Cc1ccccc1”, `COc1ccc(C2=[N+]3C(=Nc4c(-c5cc(OC)c(OC)c(OC)c5Br)c(-c5ccc(C(C)(C)C)cc5)c(-c5ccc(OC)cc5)n4[B-]3(F)F)C(c3cc(OC)c(OC)c(OC)c3Br)=C2c2ccc(C(C)(C)C)cc2)cc1` showed an absorption maximum of 706 nm.

In turn, `F[B-]1(F)n2c(cc(-c3ccccc3)c2-c2ccccc2)C(c2ccccc2)=C2C=C(c3ccccc3)C(c3ccccc3)=[N+]21` displayed an absorption maximum (in C1CCOC1) of 586 nm, an absorption maximum (in CC#N) of 576 nm, an absorption maximum (in Cc1ccccc1) of 592 nm and an absorption maximum (in ClCCl) of 584 nm.

Regarding `CCn1c2ccccc2c2cc(/C=C(\C#N)c3ccccc3)ccc21`, the absorption maximum (in ClCCl) stood at 374 nm.

In the case of `c1ccc(-c2nc(-c3ccccc3)nc(-c3ccc(N4c5ccccc5[Si](c5ccccc5)(c5ccccc5)c5ccccc54)cc3)n2)cc1`, where the note is “in Cc1ccccc1”, the absorption maximum is 376.66 nm.

Under “in Cc1ccccc1”, `Cc1cc(C)c(B(c2c(C)cc(C)cc2C)c2c(C)cc(-n3c4ccccc4c4cc(N(c5ccccc5)c5ccccc5)ccc43)cc2C)c(C)c1` came in with an absorption maximum of 375 nm.

`COc1ccc(-c2csc(/C(C#N)=C/c3ccccc3Cl)n2)cc1`: the absorption maximum (in CC#N) is 372 nm.

For the compound `Cc1nc2c(ccc3ccc(N(C)C)cc32)oc1=O`, the absorption maximum (in c1ccccc1) came out at 426 nm.

For the setting “in ClCCl”, `c1cc(-c2c3ccccc3c(-c3ccc4ccccc4c3)c3ccccc23)cc(-n2c3ccccc3c3ccccc32)c1` showed an absorption maximum of 376 nm.

Take `COc1ccc(-c2cc(-c3ccc(C)cc3)nc3c(C#N)c(N4CCCC4)nc(N)c23)cc1`: the absorption maximum reads like this: (in CC#N) 418 nm; (in CC(C)=O) 420 nm; (in CC(C)O) 414 nm; (in CO) 414 nm; (in ClC(Cl)Cl) 418 nm; (in ClCCl) 422 nm. Under “in c1ccccc1”, this compound displayed an absorption maximum of 424 nm.

`Cc1sc(-c2ccc(-c3nc(-c4ccccc4)c(-c4ccccc4)[nH]3)cc2)c(C)c1C1=C(c2c(C)n(C)c3ccccc23)C(F)(F)C(F)(F)C1(F)F` yielded an absorption maximum (in C1CCOC1) of 313 nm.

Consider `COc1cc2c3c4c(c5ccc(C(C)(C)C)cc5c5c(OC)c(OC)c(OC)c(c2c(OC)c1OC)c45)=[N+]1C3=Nc2c3c4cc(OC)c(OC)c(OC)c4c4c(OC)c(OC)c(OC)c5c6cc(C(C)(C)C)ccc6c(c3c54)n2[B-]1(F)F`, for which, for the setting “in Cc1ccccc1”, the absorption maximum was 850 nm.

Compound `O=c1c2cc(F)c(N3CCCCC3)cc2oc2cc(N3CCCCC3)c(F)cc12` registered an absorption maximum (in CCO) of 369 nm.

`CC(C)(C)c1ccc(-c2cc(-c3ccc(-c4cc(-c5ccc(C(C)(C)C)cc5)c(C(=O)N5CCCCC5)s4)s3)sc2C(=O)N2CCCCC2)cc1` displayed an absorption maximum (in ClCCl) of 378 nm.

`CCN1CCN(c2ccc(/N=N/c3ccc(C#N)cc3)cc2)CC1` yielded an absorption maximum (in CCOC(C)=O) of 428 nm.

Where the note is “in ClC(Cl)Cl”, `N#CC1=CC(c2ccccc2)=CC(C#N)=P1(c1ccccc1)c1ccccc1` yielded an absorption maximum of 480 nm.

The compound `O=c1c2cccc3cccc(c32)c2nc3c4ccccc4c4ccccc4c3n12` returned an absorption maximum (in ClCCl) of 436 nm.

Take `COC(=O)C(NC(=O)OC(C)(C)C)c1ccc2oc(-c3cc(OC)c(OC)c(OC)c3)nc2c1` (centres undefined): the absorption maximum (in CC1CCCCC1) stood at 327 nm, the absorption maximum (in CC#N) turned out to be 312 nm and the absorption maximum (in CO) is on record as 313 nm.

Regarding `Fc1cccc(F)c1[B-]1(c2c(F)cccc2F)Oc2c(ccc3c4c(ccc23)C=[N+](c2ccccc2)[B-](c2c(F)cccc2F)(c2c(F)cccc2F)O4)C=[N+]1c1ccccc1`, the absorption maximum is listed as 538 nm (in Cc1ccccc1) and 534 nm (in ClCCl).

`CC1=[N+]2C(=C(c3ccc(C(=C(c4ccccc4)c4ccccc4)c4ccccc4)cc3)c3ccc(C)n3[B-]2(F)F)C=C1`: the absorption maximum (in C1CCOC1) came to 511 nm.

Regarding `CCOC(=O)c1ccc(C2CC(c3cccc4ccccc34)=NN2c2ccc(OC)cc2)cc1` (centres undefined), the absorption maximum (in ClCCl) was found to be 383 nm.

For the compound `COc1ccc2c3c(cccc13)C(=O)c1ccccc1-2`, the absorption maximum reads like this: (in CC(C)=O) 421.05 nm; (in CCCCOCCCC) 412.03 nm; (in CCOC(C)=O) 418.06 nm; (in CCOCC) 414.08 nm; (in Clc1ccccc1) 423.01 nm; (in O=C1CCCCC1) 421.94 nm.

As for `O=c1cc2cc(O)c3cc(O)cc4ccc(o1)c2c43`, where the note is “in CC1CCCO1”, the absorption maximum was 476 nm.

Consider `Cc1cc(C)c(C2=C(c3c(C)sc(-c4ccc(-c5nc(-c6ccccc6)c(-c6ccccc6)[nH]5)cc4)c3C)C(F)(F)C(F)(F)C2(F)F)s1`, for which the absorption maximum (in C1CCOC1) came to 332 nm.

The values are drawn from the Deep4Chem optical property database.
